The source of these data is BindingDB's records for doi:10.1016/j.bmc.2008.11.020 (Astellas Pharma, 2008).

A short description of assay [1]: Antagonist activity at mouse CCR4 receptor expressed in mouse B300-19 cells assessed as CCL22-induced chemotaxis.
Assay [2] is described as follows: Antagonist activity at human CCR4 receptor expressed in mouse B300-19 cells assessed as CCL22-induced chemotaxis.

For `COc1cc2nc(N3CCC(N4CCCC(CO)C4)CC3)nc(NCCc3ccc(Cl)cc3)c2cc1OC` (stereo unspecified) [1'-(4-{[2-(4-Chlorophenyl)ethyl]amino}-6,7-dimethoxyquinazolin-2-yl)-1,40-bipiperidin-3-yl]methanol], the IC50 (in general, the concentration at which inhibition is half-maximal) in assay [1] was found to be 390 nM.
`COc1cc2nc(N3CCC(N4CCCC(O)C4)CC3)nc(Nc3ccc(Cl)cc3)c2cc1OC` (stereo unspecified) [1'-{4-[(4-Chlorophenyl)amino]-6,7-dimethoxyquinazolin-2-yl}-1,4'-bipiperidin-3-ol]: the IC50 in assay [1] is 430 nM; in assay [2], 85 nM.
With `COc1cc2nc(N3CCC(N4CCCC(CO)C4)CC3)nc(NCc3ccc(Cl)cc3)c2cc1OC` (stereo unspecified) [(1'-{4-[(4-Chlorobenzyl)amino]-6,7-dimethoxyquinazolin-2-yl}-1,4'-bipiperidin-3-yl)methanol], the results for the IC50 in assay [1] and in assay [2] were 140 nM and 450 nM, respectively.
Regarding `COc1cc2nc(N3CCC(N4CCCC(CO)C4)CC3)nc(Nc3ccc(Cl)cc3)c2cc1OC` (stereo unspecified) [(1'-{4-[(4-Chlorophenyl)amino]-6,7-dimethoxyquinazolin-2-yl}-1,4'-bipiperidin-3-yl)methanol], the IC50 in assay [1] is 58 nM; in assay [2], 23 nM.
On to `COCC1CCCN(C2CCN(c3nc(Nc4ccc(Cl)cc4)c4cc(OC)c(OC)cc4n3)CC2)C1` (stereo unspecified) [N-(4-Chlorophenyl)-6,7-dimethoxy-2-[3-(methoxymethyl)-1,4'-bipiperidin-1'-yl]quinazolin-4-amine], for which the IC50 was found to be 230 nM in assay [1] and 64 nM in assay [2].
Regarding `COc1cc2nc(N3CCC(N4CCCC(OC)C4)CC3)nc(Nc3ccc(Cl)cc3)c2cc1OC` (stereo unspecified) [N-(4-chlorophenyl)-6,7-dimethoxy-2-(3-methoxy-1,4'-bipiperidin-1'-yl)quinazolin-4-amine], the IC50 in assay [1] was determined as 420 nM; in assay [2] it was 510 nM.
For `COc1cc2nc(N3CCC(N4CCCCC4)CC3)nc(NC3CCCCCC3)c2cc1OC` [N-cycloheptyl-6,7-dimethoxy-2-(4-(piperidin-1-yl)piperidin-1-yl)quinazolin-4-amine], the IC50 was 39 nM in assay [1] and 140 nM in assay [2].
On to `COc1cc2nc(N3CCC(N4CCOC(CO)C4)CC3)nc(Nc3ccc(Cl)cc3)c2cc1OC` (stereo unspecified) [[4-(1-{4-[(4-Chlorophenyl)amino]-6,7-dimethoxyquinazolin-2-yl}piperidin-4-yl)morpholin-2-yl]methanol], for which, in assay [2], the IC50 was 620 nM.
As to `COc1cc2nc(N3CCC(N4CCCC(CO)C4)CC3)nc(NC3CCCCCC3)c2cc1OC` (stereo unspecified) [{1'-[4-(Cycloheptylamino)-6,7-dimethoxyquinazolin-2-yl]-1,4'-bipiperidin-3-yl}methanol], the IC50 in assay [1] amounted to 19 nM; in assay [2], 100 nM.
